Laboratory results taken from US20080003438A1, “Heterocyclic siloxanes for use in biocidal coatings and materials” (Auburn University, priority 2002, published 2008).

Key:
[1] = test system: MS2 phage; assay: Antiviral activity of chlorinated coated surfaces, modified AATCC Method 100-1998; type: cell-based, MS2 virus
Description: Soft and hard surfaces were treated by exposure to a solution of 3-triethoxysilylpropyl-5,5-dimethylhydantoin, as prepared in Example 1, and then halogenated with hypochlorite bleach, prior to being exposed to a challenge inoculum of a virus (MS2 phage). […] Soft surfaces used in these experiments were swatches of woven cotton textiles, and slabs cut from a standard kitchen sponge. Hard surfaces used were porcelain and marble tiles.
For the preparation of antimicrobial textiles, fabric and sponge samples were immersed in 5% solution of 3-triethoxysilylpropyl-5,5-dimethylhydantoin and dried in a convection oven at 90° C. for two hours. Chlorination of the coated cellulose materials was accomplished by placing them in the wash chamber of a standard, household washing machine, and processing them through a normal, cold water small load cycle, with one rinse. The washing solution contained 100 mL of CLOROX ULTRA (sodium hypochlorite) per load. […] Chlorine contents were calculated and expressed as ppm Cl^+. […]
Hard surface samples were exposed to the 3-triethoxysilylpropyl-5,5-dimethylhydantoin by using a sponge soaked in the 5% solution, before transfer to a drying oven at 90° C. for two hours. […] Chlorine bound to hard surfaces was determined by iodometric/thiosulfate titration, and chlorine contents were expressed as μg Cl^+ per square cm. […]

[2] = test system: spores of Aspergillus niger (ATCC # 1004); assay: Antifungal activity of chlorinated coated surfaces; type: cell-based
Description: Soft and hard surfaces were treated by exposure to a solution of 3-triethoxysilylpropyl-5,5-dimethylhydantoin, prepared as described in Example 1. The soft surfaces used for detection of antifungal properties were woven textiles composed of fibers of polypropylene, cotton (cellulose), polyester, rayon, and slabs from a cellulose kitchen sponge. Hard surfaces prepared were polyvinylchloride (PVC) sheets, and porcelain and marble tiles. Challenge inocula of prepared surfaces consisted of aliquots of stock suspensions of spores of Aspergillus niger (ATCC # 1004), a black mold, harvested from cultured lawns on Potato Dextrose Agar (PDA) plates. Methods for preparation of the halogen charged surfaces and protocols for challenge were as described in Example 11. In this case recovery of Aspergillus was accomplished by the plate dilution method on PDA, and the results were expressed as log 10 reductions compared to the controls. Contact times varied from 24-72 hours, considerably longer than was allowed for other organisms because of the well established durability of black mold spores under a wide range of physical and chemical conditions.

Compound: CCO[Si](CCCN1C(=O)NC(C)(C)C1=O)(OCC)OCC [3-triethoxysilylpropyl-5,5-dimethylhydantoin]
- Log 10 reduction of MS2 titer ([1]; cellulose substrates (textile and sponge), 24 hours of contact): approximately 4 logs
- Log 10 reduction of MS2 titer ([1]; hard surfaces, contact times of as little as 6 hours): approximately 2 logs
- log 10 reduction in mold concentration ([2]; cotton, contact 24 hours): 8 logs
- log 10 reduction in mold concentration ([2]; marble, 72 hours after spore inoculation): 4 log
- log 10 reduction in mold concentration ([2]; porcelain, 72 hours after spore inoculation): 5 log
- log 10 reduction in mold concentration ([2]; sponge slabs, contact 24 hours): 4 log
- log 10 reduction in mold concentration ([2]; synthetic fibers (polypropylene, polyester), 72 hours of contact): 5 logs
- log 10 reduction in mold concentration ([2]; vinyl, 72 hours after spore inoculation): 4 log
